Consider 18 compounds from patent publication US20230303552A1, “ARYLSULFONYL DERIVATIVES AND THEIR USE AS MUSCARINIC ACETYLCHOLINE RECEPTOR M5 INHIBITORS” (Vanderbilt University, priority 2020, published 2023).

The target of the experiment is T1, human M5 receptors (hM5) (Homo sapiens, UniProt P08912).
T1 construct: expressed in transfected cells
T1 sequence (P08912 1-532): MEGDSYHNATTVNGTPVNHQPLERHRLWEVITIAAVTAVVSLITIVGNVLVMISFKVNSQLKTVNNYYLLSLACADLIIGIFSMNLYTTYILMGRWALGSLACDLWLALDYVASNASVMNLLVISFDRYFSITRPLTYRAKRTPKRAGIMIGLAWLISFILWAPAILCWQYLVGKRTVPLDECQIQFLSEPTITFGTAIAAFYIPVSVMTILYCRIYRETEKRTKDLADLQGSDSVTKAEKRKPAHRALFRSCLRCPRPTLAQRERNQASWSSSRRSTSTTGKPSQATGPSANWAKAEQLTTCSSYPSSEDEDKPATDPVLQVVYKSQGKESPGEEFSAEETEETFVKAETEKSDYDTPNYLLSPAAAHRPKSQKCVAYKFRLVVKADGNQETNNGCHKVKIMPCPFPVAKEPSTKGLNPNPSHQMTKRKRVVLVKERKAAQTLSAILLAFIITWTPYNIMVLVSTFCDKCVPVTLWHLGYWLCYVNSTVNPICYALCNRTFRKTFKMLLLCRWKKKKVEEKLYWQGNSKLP
The experiment in a line: Cell-based functional calcium mobilization assay of mAChR M5 activity (inhibition of EC80 acetylcholine response) in CHO cells. Particulars: CHO cells stably expressing hM5; for IC50: calcium flux (Fluo-4), EC80 acetylcholine addition; for EC80 MIN: minimum of EC80 acetylcholine response, normalized to maximum acetylcholine response. As for the experimental part:
All functional cell-based assays were performed essentially as previously described (Marlo et al., Mol.Pharm. 2009, 75(3), 577-588; Brady et al., J. Pharm. & Exp. Ther. 2008, 327, 941-953). Initial, single point (10 µM) competitive and non-competitive inhibitor characterization was performed in stable Chinese Hamster Ovary (CHO) cell lines constitutively expressing human M5 receptors. These were plated at 15,000 cells per 20 µL per well in Greiner 384-well black-walled, TC-treated, clear-bottomed plates (Fisher) in Ham’s F12 medium supplemented with 10% FBS and 20 mM HEPES. Cells were incubated overnight at 37° C. under 5% CO2. The following day, medium was exchanged with assay buffer (Hank’s Balanced Salt Solution supplemented with 20 mM HEPES and 2.5 mM Probenecid, pH 7.4) leaving 20 µL of assay buffer in each well. This was followed by the addition of 20 µL of 2.3 µM of Fluo-4 AM (Invitrogen) in assay buffer (final concentration 1.15 µM). The cells were then incubated 50 minutes at 37° C. under 5% CO2. The assay buffer plus dye was then exchanged with fresh assay buffer leaving a volume of 20 µL in each well. Test compounds were diluted into assay buffer to a 2X (20 µM) concentration in 0.2% dimethylsulfoxide (DMSO) in columns 3 - 22 with matching DMSO concentration in columns 1, 2, 23, and […]; compounds were added to the assay for a final concentration of 10 µM and a final DMSO concentration of 0.1%. Acetylcholine (Sigma-Aldrich) was prepared to provide 5X concentrations of EC20, EC80, and ECmax in the triple-addition assay, providing a signal window to view agonism, potentiation, and inhibition of the acetylcholine response as well as a means to normalize to the maximum acetylcholine response.
Either an FDSS (Hamamatsu) or Panoptic (WaveFront Biosciences) kinetic imaging plate reader was used for assay execution and measurement of calcium flux. After establishing baseline fluorescence, test compounds (20 µL) were added to the cells using the reader’s integrated pipettor and allowed to equilibrate for 140 seconds before addition of the EC20 concentration of acetylcholine (10 µL) along with vehicle in selected DMSO-only wells in the outer two columns. The EC80 concentration of acetylcholine (10 µL) was added 125 seconds after the EC20 addition along with ECmax concentration in the wells receiving vehicle in the second addition. The raw fluorescence data from each well was normalized to the corresponding initial fluorescence reading (static ratio). The maximum fluorescence value following each addition was determined and the minimum value within that same timeframe was subtracted for each well then normalized to the average of the ECmax maximum-minimum response, providing a %AChmax value for each addition for each well. The single point values represent mean values determined within the EC80 addition timeframe obtained from at least three independent determinations performed in triplicate or greater (error bars represent +/- SEM) unless otherwise specified.
Further characterization of competitive and non-competitive inhibitor compounds (compound potency and mAChR subtype-selectivity) was performed on the FDSS with calcium mobilization assays performed as previously described (Marlo et al., 2009; Brady et al., 2008) and in a format similar to that described above using the same reagents. CHO cells stably expressing hM1, hM2/Gqi5, hM3, hM4/Gqi5, hM5, rM1, rM2/Gqi5, rM3, rM4/Gqi5, or rMs were plated in the manner described above. A ten-point concentration range of test compound was serial diluted in assay buffer to 2X final concentration and acetylcholine was diluted in assay buffer to 5X of the EC20 and EC80 concentrations, determined empirically and 5X maximal (2 mM final concentration) stock concentrations. FDSS protocols were carried out as described above; the static ratio was calculated and the minimum response subtracted from the maximum response within the timeframe of each addition. […]

For the compound `O=C(Nc1ccc2scnc2c1)[C@H]1CCN(S(=O)(=O)c2cccc3nsnc23)C[C@@H]1F` (racemic) [Compound 81, trans-(rac)-1-(benzo[c][1,2,5]thiadiazol-4-ylsulfonyl)-N-(benzo[d]thiazol-5-yl)-3-fluoropiperidine-4-carboxamide], the IC50 came out at 500 nM and the “EC80 MIN” value was determined as 5%.

Take `O=C(Nc1ccc2scnc2c1)[C@H]1CCN(S(=O)(=O)c2cccnc2)C[C@@H]1F` (racemic) [Compound 82, trans-(rac)-N-(benzo[d]thiazol-5-yl)-3-fluoro-1-(pyridin-3-ylsulfonyl)piperidine-4-carboxamide]: the IC50 was found to be 95 nM and the “EC80 MIN” value was 2%.

With `O=C(Nc1ccc2scnc2c1)[C@H]1CCN(S(=O)(=O)c2ccc3c(c2)CCO3)C[C@@H]1F` (racemic) [Compound 86, Trans-(rac)-N-(Benzo[d]thiazol-5-yl)-1-((2,3-Dihydrobenzofuran-5-yl)Sulfonyl)-3-Fluoropiperidine-4-Carboxamide], the IC50 was 177 nM and the “EC80 MIN” value was found to be 2%.

Regarding `CC1Cc2cc(S(=O)(=O)N3CCC(C(=O)Nc4ccc5scnc5c4)CC3)ccc2O1` (racemic) [Compound 87, (rac)-N-(benzo[d]thiazol-5-yl)-1-((2-methyl-2.3-dihydrobenzofuran-5-yl)sulfonyl)piperidine-4-carboxamide], the IC50 is more than 10000 nM.

Consider `C[C@@H]1CN(S(=O)(=O)c2ccc3c(c2)CCO3)CC[C@@H]1C(=O)Nc1ccc2scnc2c1` (racemic) [Compound 92, cis-(rac)-,N^_ (benzo[d]thiazol-5-yl)-1-((2,3-dihydrobenzofuran-5-yl)sulfonyl)-3-methylpiperidine-4-carboxamide], for which the IC50 worked out at 631 nM and the “EC80 MIN” value was found to be 4%.

Turning to `C[C@@H]1CN(S(=O)(=O)c2ccc3ncsc3c2)CC[C@@H]1C(=O)Nc1ccc2scnc2c1` (racemic) [Compound 93, cis-(rac)-N-(benzo[d]thiazol-5-y1)-1-(benzo[d]thiazol-6-ylsulfonyl)-3-methylpiperidine-4-carboxamide], the IC50 was 2940 nM and the “EC80 MIN” value is on record as 4%.

As for `C[C@@H]1CN(S(=O)(=O)c2ccc(Cl)nc2)CC[C@@H]1C(=O)Nc1ccc2scnc2c1` (racemic) [Compound 94, cis-(rac)-N-(benzo[d]thiazol-5-yl)-1-((6-chloropyridin-3-yl)sulfonyl)-3-methylpiperidine-4-carboxamide], the IC50 came out at 4570 nM and the “EC80 MIN” value came to 4%.

Take `Cc1nn(C)cc1S(=O)(=O)N1CC[C@H](C(=O)Nc2ccc3scnc3c2)[C@H](C)C1` (racemic) [Compound 95, cis-(rac)-,N^_ (benzo[d]thiazol-5-yl)-1-((1,3-dimethyl-1H-pyrazol-4-yl)sulfonyl)-3-methylpiperidine-4-carboxamide]: the IC50 came to 4490 nM and the “EC80 MIN” value was determined as 5%.

As for `C[C@@H]1CN(S(=O)(=O)c2cccc3nsnc23)CC[C@@H]1C(=O)Nc1ccc2scnc2c1` (racemic) [Compound 96, cis-(rac)-1-(benzo[c][1,2,5]thiadiazol-4-ylsulfonyl)-N-(benzo[d]thiazol-5-yl)-3-methylpiperidine-4-carboxamide], the IC50 was 1110 nM and the “EC80 MIN” value is given as 3%.

`C[C@@H]1C[C@H](C(=O)Nc2ccc3scnc3c2)CCN1S(=O)(=O)c1ccc2c(c1)CCO2` (racemic) [Compound 97, cis-(rac)-N-(benzo[d]thiazol-5-yl)-1-((2,3-dihydrobenzofuran-5-yl)sulfonyl)-2-methylpiperidine-4-carboxamide]: the IC50 is 159 nM and the “EC80 MIN” value worked out at 2%.

For `Cc1nn(C)cc1S(=O)(=O)N1CC[C@@H](C(=O)Nc2ccc3scnc3c2)C[C@H]1C` (racemic) [Compound 98, cis-(rac)-,N^_ (benzo[d]thiazol-5-yl)-1-((1,3-dimethyl-1H-pyrazol-4-yl)sulfonyl)-2-methylpiperidine-4-carboxamide], the IC50 turned out to be 324 nM and the “EC80 MIN” value was found to be 3%.

For the compound `C[C@@H]1C[C@H](C(=O)Nc2ccc3scnc3c2)CCN1S(=O)(=O)c1cccc2nsnc12` (racemic) [Compound 99, cis-(rac)-1-(benzo[c][1,2.5]thiadiazol-4-ylsulfonyl)-N-(benzo[d]thiazol-5-yl)-2-methylpiperidine-4-carboxamide], the IC50 worked out at 389 nM and the “EC80 MIN” value was found to be 3%.

Turning to `C[C@@H]1CN(S(=O)(=O)c2cccnc2)CC[C@@H]1C(=O)Nc1ccc2scnc2c1` (racemic) [Compound 103, cis-(rac)-N-(benzo[d]thiazol-5-yl)-3-methyl-1-(pyridin-3-ylsulfonyl)piperidine-4-carboxamide], the IC50 was more than 10000 nM and the “EC80 MIN” value came out at 5%.

With `C[C@H]1CN(S(=O)(=O)c2ccc3c(c2)CCO3)CC[C@@H]1C(=O)Nc1ccc2scnc2c1` (racemic) [Compound 116, trans-(rac)-N-(benzo[d]thiazol-5-yl)-1-((2,3-dihydrobenzofuran-5-yl)sulfonyl)-3-methylpiperidine-4-carboxamide], the IC50 came out at 1540 nM and the “EC80 MIN” value is 3%.

Consider `C[C@H]1CN(S(=O)(=O)c2ccc3ncsc3c2)CC[C@@H]1C(=O)Nc1ccc2scnc2c1` (racemic) [Compound 117, trans-(rac)-N-(benzo[d]thiazol-5-yl)-1-(benzo[d]thiazol-6-ylsulfonyl)-3-methylpiperidine-4-carboxamide], for which the IC50 is 8920 nM and the “EC80 MIN” value turned out to be 5%.

With `C[C@H]1CN(S(=O)(=O)c2ccc(Cl)nc2)CC[C@@H]1C(=O)Nc1ccc2scnc2c1` (racemic) [Compound 118, trans-(rac)-N-(benzo[d]thiazol-5-yl)-1-((6-chloropyridin-3-yl)sulfonyl)-3-methylpiperidine-4-carboxamide], the IC50 came to 803 nM and the “EC80 MIN” value was 4%.

In the case of `C[C@H]1CN(S(=O)(=O)c2cccnc2)CC[C@@H]1C(=O)Nc1ccc2scnc2c1` (racemic) [Compound 119, trans-(rac)-N-(benzo[d]thiazol-5-yl)-3-methyl-1-(pyridin-3-ylsulfornyl)piperidine-4-carboxamide], the IC50 was 982 nM and the “EC80 MIN” value was determined as 4%.

As to `C[C@@H]1C[C@@H](C(=O)Nc2ccc3scnc3c2)CCN1S(=O)(=O)c1ccc(Cl)nc1` (racemic) [Compound 120, trans-(rac)-N-(benzo[d]thiazol-5-yl)-1-((6-chloropyridin-3-yl)sulfonyl)-2-methylpiperidine-4-carboxamide], the IC50 stood at 275 nM and the “EC80 MIN” value came out at 3%.
